Results on 13 molecules are retold here after PubChem BioAssay AID504563 (Southern Research Specialized Biocontainment Screening …, 2011).

This assay relates to HIV-1 CXCR4-tropic in human PBMC, supernatant RT activity. Nature of the assay: inhibitors of CXCR4-tropic HIV-1 replication in PBMCs, dose response, cell-based, human PBMC, set 2 (AID 504563).

Usually IC50 stands for the point on the concentration scale where inhibition reaches its midpoint. For `Cc1c2c(=O)n(-c3nc4ccccc4s3)nc-2cc(O)n1CCc1cccs1`, the IC50 is 3.77 µM.
The figure for `Cc1c2c(=O)n(-c3nc4ccccc4s3)nc-2cc(O)n1CCc1ccc(O)cc1` is 1.85 µM; for `COc1ccc(CCn2c(O)cc3nn(-c4nc5ccccc5s4)c(=O)c-3c2C)cc1` it is 12.6 µM.
Then `Cc1c2c(=O)n(-c3nc4ccccc4s3)nc-2cc(O)n1Cc1ccncc1`, with 1.99 µM; and `COc1ccc(Cn2c(O)cc3nn(-c4nc5ccccc5s4)c(=O)c-3c2C)cc1`, with 2.86 µM; and `Cc1c2c(=O)n(-c3nc4ccccc4s3)nc-2cc(O)n1Cc1ccccc1`, with 3.21 µM.
For `Cc1c2c(=O)n(-c3nc4ccccc4s3)nc-2cc(O)n1CCC(C)C`, the IC50 is 5.25 µM.
The figure for `Cc1c2c(=O)n(-c3nc4ccccc4s3)nc-2cc(O)n1C1CC1` is 0.76 µM; for `COc1ccccc1Cn1c(O)cc2nn(-c3nc4ccccc4s3)c(=O)c-2c1C` it is 5.55 µM.
Take `Cc1c2c(=O)n(-c3nc4ccccc4s3)nc-2cc(O)n1Cc1ccc(F)cc1`: the IC50 was 3.98 µM.
As to `Cc1c2c(=O)n(-c3nc4ccccc4s3)nc-2cc(O)n1Cc1ccccc1Cl`, the IC50 is 7.26 µM.
Then `Cc1c2c(=O)n(-c3nc4ccccc4s3)nc-2cc(O)n1Cc1cccnc1`, with 1.51 µM; and `Cc1c2c(=O)n(-c3nc4ccccc4s3)nc-2cc(O)n1Cc1cccs1`, with 1.83 µM.
